In brackets after ≈: the same amount, converted by molar mass. Entries after “also recorded” stand apart in the source; their conditions may differ. Like-named read-outs stand apart in the source and are kept apart here.
Assays:
[1] = Pharmacokinetics after intravenous and oral dosing in rats; assay type: in vivo; details: male, Wistar Han, plasma, rat; for clearance: IV 0.1 mg/kg
[2] = test system: lung eosinophilia; test: Ovalbumin sensitised Brown Norway rat eosinophilia model; assay type: in vivo; details: single intra-tracheal dose of 30 μg, suspension in saline, 30 min prior to ovalbumin challenge
Method: Pharmacological activity in vivo was assessed in an-ovalbumin sensitised Brown Norway rat eosinophilia model. This model is designed to mimic allergen induced lung eosinophilia, a major component of lung inflammation in asthma.

[3] = Pharmacokinetics after intravenous administration in the anaesthetised pig; assay type: in vivo; details: intravenous mixture of the two compounds at 0.1 mg/kg
From the text: The clearance of these two glucocorticoids is similar is this experimental pig model.

[4] = test system: thymus involution; test: Rat model of thymus involution; assay type: in vivo; details: 3 daily IT doses of 100 μg
[5] = Pharmacokinetics after intra-tracheal dry powder dosing in the pig; assay type: in vivo; details: for time after dosing up to which quantifiable in plasma / Cmax / AUC(0-inf): pig; for time after dosing up to which quantifiable in plasma: intra-tracheal 1 mg, LLOQ 10 and 20 pg/mL; for Cmax / AUC(0-inf): plasma, 1 mg; for Cmax: inhaled or intranasal; for AUC(0-inf): iv, compound (I) calculated with IV half-life
Method: Serial blood samples were taken for up to 8 h following dosing.

[6] = Solubility in water with surfactants and co-solvating agents; assay type: physicochemical
From the text: As noted above, this improved process permits solutions of higher concentration to be prepared than is possible by conventional techniques.

[7] = molecular target: T1, glucocorticoid receptor (GR) (Homo sapiens, UniProt P04150); test: Transrepression (NFκB): A549 cells with firefly luciferase NFκB reporter, TNFα stimulated; assay type: cell-based; details: 0.5 ng/ml TNFα, read-out: Transrepression (NFκB) ED50
From the text: (§1) The glucocorticoid receptor (GR) can function in at least two distinct mechanisms, by upregulating gene expression through the direct binding of GR to specific sequences in gene promotors, and by downregulating gene expression that is being driven by other transcription factors (such as NFκB or AP-1) through their direct interaction with GR.
(§2) The first cell line contains the firefly luciferase reporter gene under the control of a synthetic promoter that specifically responds to activation of the transcription factor NFκB when stimulated with TNFα. The second cell line contains the renilla luciferase reporter gene under the control of a synthetic promotor that comprises 3 copies of the consensus glucocorticoid response element, and which responds to direct stimulation by glucocorticoids. Simultaneous measurement of transactivation and transrepression was conducted by mixing the two cell lines in a 1:1 ratio in 96 well plate (40,000 cells per well) and growing overnight at 37° C. Test compounds were dissolved in DMSO, and added to the cells at a final DMSO concentration of 0.7%. After incubation for 1 h 0.5 ng/ml TNFα (R&D Systems) was added and after a further 15 hours at 37° C., the levels of firefly and renilla luciferase were measured using the Packard Firelite kit following the manufacturers' directions. Dose response curves were constructed from which EC50 values were determined.

[8] = molecular target: T2, glucocorticoid receptor (Homo sapiens, UniProt P04150); test: In vitro functional glucocorticoid assays, metabolite versus parent; assay type: cell-based
T2 sequence (P04150 1-777): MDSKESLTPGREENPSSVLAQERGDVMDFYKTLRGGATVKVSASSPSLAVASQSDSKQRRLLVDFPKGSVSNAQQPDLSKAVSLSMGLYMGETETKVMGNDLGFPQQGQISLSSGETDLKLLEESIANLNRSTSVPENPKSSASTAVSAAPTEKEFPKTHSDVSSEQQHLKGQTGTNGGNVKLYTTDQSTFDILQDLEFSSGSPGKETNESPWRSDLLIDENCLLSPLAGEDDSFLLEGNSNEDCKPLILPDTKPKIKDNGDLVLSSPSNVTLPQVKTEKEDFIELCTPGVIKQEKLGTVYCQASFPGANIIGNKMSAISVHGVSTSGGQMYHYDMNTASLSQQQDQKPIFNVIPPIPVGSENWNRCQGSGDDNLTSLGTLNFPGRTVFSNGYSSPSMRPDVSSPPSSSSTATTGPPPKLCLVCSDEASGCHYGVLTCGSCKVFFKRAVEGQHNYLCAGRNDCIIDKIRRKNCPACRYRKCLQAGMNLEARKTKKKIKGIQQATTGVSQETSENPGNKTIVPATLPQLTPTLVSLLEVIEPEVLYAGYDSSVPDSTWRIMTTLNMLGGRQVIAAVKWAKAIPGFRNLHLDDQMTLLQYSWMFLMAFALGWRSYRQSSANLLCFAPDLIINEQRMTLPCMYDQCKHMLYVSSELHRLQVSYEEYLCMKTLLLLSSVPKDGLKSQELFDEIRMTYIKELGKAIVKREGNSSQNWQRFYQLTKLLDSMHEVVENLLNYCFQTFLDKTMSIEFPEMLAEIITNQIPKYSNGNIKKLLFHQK
Method: Compound (I) wherein R represents furan-2-yl undergoes highly efficient hepatic metabolism to yield the 17-β carboxylic acid (X) as the sole major metabolite in rat and human in vitro systems. […] Pharmacological activity was assessed in a functional in vitro assay of glucocorticoid agonist activity which is generally predictive of anti-inflammatory or anti-allergic activity in vivo.

[9] = molecular target: T1, glucocorticoid receptor (GR); test: Transactivation (GR): A549 cells with renilla luciferase reporter under glucocorticoid response elements; assay type: cell-based; details: renilla luciferase GRE reporter, read-out: Transactivation (GR) ED50
From the text: as §1, §2

[10] = Pig 1, intra-tracheal dry powder 1 mg
[11] = Pig 2, intra-tracheal dry powder 1 mg
[12] = 5% Tyloxapol, aqueous with cosolvent or surfactant or cyclodextrin, 5% Tyloxapol, process performed at 60-70° C., read-out: solubility
[13] = 5% Tyloxapol, aqueous with cosolvent or surfactant or cyclodextrin, 5% Tyloxapol, process performed at room temperature, read-out: solubility
[14] = water, aqueous with cosolvent or surfactant or cyclodextrin, in water, Triton X-100 2% w/w, read-out: Solubility
[15] = water, aqueous with cosolvent or surfactant or cyclodextrin, in water, Tyloxapol 2% w/w, read-out: Solubility
[16] = water, aqueous with cosolvent or surfactant or cyclodextrin, in water, Tyloxapol 5% w/w and PEG200 10% w/w, read-out: Solubility
[17] = water, aqueous with cosolvent or surfactant or cyclodextrin, in water, Tyloxapol 5% w/w, read-out: Solubility
[18] = water, in water, no surfactant, read-out: Solubility

Row | clearance [1] | pharmacokinetic parameters, compound (I) versus fluticasone propionate [3] | reduction of thymus weight [4] | time after dosing up to which quantifiable in plasma [5] | Cmax [5, 10] | Cmax [5, 11] | AUC(0-inf) [5, 10] | AUC(0-inf) [5, 11] | solubility [6, 12] | solubility [6, 13] | solubility [6, 14] | solubility [6, 15] | solubility [6, 16] | solubility [6, 17] | solubility [6, 18] | Structure (SMILES) | also measured
1 | 2.84 L/h/kg | the same | 67% | up to 2 hours | 0.117 ng/mL | 0.081 ng/mL | 0.254 ng·h/mL | 0.221 ng·h/mL | 0.344 mg/mL | 0.233 mg/mL | 0.266 mg/mL | 0.095 mg/mL | 0.836 mg/mL | 0.307 mg/mL | < 0.001 mg/mL | C[C@@H]1C[C@H]2[C@@H]3C[C@H](F)C4=CC(=O)C=C[C@]4(C)[C@@]3(F)[C@@H](O)C[C@]2(C)[C@@]1(OC(=O)c1ccco1)C(=O)SCF [Compound of Formula (I), 6α, 9α-difluoro-17α-[(2-furanylcarbonyl)oxy]-11β-hydroxy-16α-methyl-3-oxo-androsta-1,4-diene-17β-carbothioic acid S-fluoromethyl ester] | bioavailability ([1]; oral, 0.1 mg/kg, oral 0.1 mg/kg and IV 0.1 mg/kg): 0.9%; inhibition of lung eosinophilia [2]: 69%; systemic exposure compared to fluticasone propionate ([5]; anaesthetised pigs, dry powder delivery to the lungs): markedly reduced systemic exposure; also recorded: significantly lower exposure; solubility ([6]; water, aqueous with cosolvent or surfactant or cyclodextrin, in water, Triton X-100 0.5% w/w, read-out: Solubility): 0.018 mg/mL; solubility ([6]; water, aqueous with cosolvent or surfactant or cyclodextrin, in water, Triton X-100 5% w/w and PEG200 10% w/w, read-out: Solubility): 0.84 mg/mL; solubility ([6]; water, aqueous with cosolvent or surfactant or cyclodextrin, in water, Triton X-100 5% w/w, read-out: Solubility): 0.549 mg/mL; solubility ([6]; water, aqueous with cosolvent or surfactant or cyclodextrin, in water, Triton X-305 5% w/w, read-out: Solubility): 0.204 mg/mL; solubility ([6]; water, aqueous with cosolvent or surfactant or cyclodextrin, in water, Tyloxapol 5% w/w and Dextrose 4% w/w, read-out: Solubility): 0.526 mg/mL; solubility ([6]; water, aqueous with cosolvent or surfactant or cyclodextrin, in water, Tyloxapol 5% w/w and Propylene glycol 10% w/w, read-out: Solubility): 0.422 mg/mL; solubility ([6]; water, aqueous with cosolvent or surfactant or cyclodextrin, in water, Tyloxapol 5% w/w, no co-solvating agent, read-out: Solubility): 0.344 mg/mL; solubility ([6]; water, aqueous with cosolvent or surfactant or cyclodextrin, in water, Tyloxapol 6% w/w, read-out: Solubility): 0.346 mg/mL; solubility ([6]; water, aqueous with cosolvent or surfactant or cyclodextrin, in water, Tyloxapol 7.5% w/w, read-out: Solubility): 0.576 mg/mL; solubility ([6]; water, aqueous with cosolvent or surfactant or cyclodextrin, in water, Tyloxapol 10% w/w, read-out: Solubility): 0.585 mg/mL
2 | 2.71 L/h/kg | the same | 78% | up to 8 hours | 0.277 ng/mL | 0.218 ng/mL | 0.455 ng·h/mL | 0.495 ng·h/mL | 0.133 mg/mL (≈ 266 µM) | 0.087 mg/mL (≈ 174 µM) | 0.069 mg/mL (≈ 138 µM) | 0.041 mg/mL (≈ 81.9 µM) | 0.207 mg/mL (≈ 414 µM) | 0.133 mg/mL (≈ 266 µM) | < 0.001 mg/mL | CCC(=O)O[C@]1(C(=O)SCF)[C@H](C)C[C@H]2[C@@H]3C[C@H](F)C4=CC(=O)C=C[C@]4(C)[C@@]3(F)[C@@H](O)C[C@@]21C [Fluticasone propionate, 6α, 9α-Difluoro-17α-(1-oxopropoxy)-11β-hydroxy-16α-methyl-3-oxo-androsta-1,4-diene-17-0-carbothioic acid S-fluoromethyl ester, reference compound] | solubility ([6]; in water, Labrasol 10% w/w): None detected; solubility ([6]; in water, Triton X-45 5% w/w): None detected; solubility ([6]; water, aqueous with cosolvent or surfactant or cyclodextrin, in water, Sodium chenodesoxycholate 5% w/w, read-out: Solubility): 0.0059 mg/mL (≈ 11.8 µM); solubility ([6]; water, aqueous with cosolvent or surfactant or cyclodextrin, in water, Sodium cholate 2% w/w, read-out: Solubility): 0.011 mg/mL (≈ 22 µM); solubility ([6]; water, aqueous with cosolvent or surfactant or cyclodextrin, in water, Sodium cholate 20% w/w, read-out: Solubility): 0.14 mg/mL (≈ 280 µM); solubility ([6]; water, aqueous with cosolvent or surfactant or cyclodextrin, in water, Tyloxapol 5% w/w and Phospatidyl choline 1% w/w, read-out: Solubility): 0.197 mg/mL (≈ 394 µM)
3 | – | – | – | – | – | – | – | – | – | – | – | – | – | – | – | C[C@@H]1CC2C3C[C@H](F)C4=CC(=O)C=C[C@]4(C)[C@@]3(F)[C@@H](O)C[C@]2(C)[C@@]1(OC(=O)c1ccco1)C(=O)O (stereo partly shown) [Metabolite (X)] | EC50 [7]: > 1 µM; fold less active than the parent compound [8]: > 1000 fold; EC50 [9]: < 0.25 µM
